Source: patent US10906909B2, “Treatment of cognitive and mood symptoms in neurodegenerative and neuropsychiatric disorders with ALPHA5-containing GABAA receptor agonists” (UWM Research Foundation, Inc., priority 2016, dated 2021)
“And” between values parts separate entries of the source, which are not always exact repeats. Equal values may be shown once. “Also recorded” adds a separate entry of the source.

What was measured:
[1] = tested on: mice subjected to chronic restraint stress (CRS); assay: Y-maze alternation task, chronic restraint stress (CRS) mice; format: in vivo, mouse
Experimental: C57/B16 mice, males and females were ordered from Jackson Laboratories at 8 weeks old and were kept in normal housing conditions (12 h light ON cycle starting at 7 am/water and food ad libitum) for one week. During this week, animals were single housed and handled to reduce the anxiety-like response toward the experimenter. To induce a working memory deficit, mice were subjected to a chronic restraint stress protocol (CRS). They were placed in a 50 ml Falcon® tube, twice a day, for 1 hour during their diurnal cycle. The time of occurrence of the stress was randomized every day to avoid predictability. CRS was not applied on testing days. Y-maze test occurred 15 hours minimum after the last stressor.
Mice were first habituated to the Y-maze apparatus and distal cues during 2 consecutive days over a 10 min free exploration session (one session per day). The next day, animals performed a training session consisting in seven successive trials separated by a 30 s inter-trial interval (ITI); during this training session, mice were familiarized with the experimental procedure (opening and closing of the doors and confinement into the goal arms). For each trial, mice remained in the start-box for a 30 s ITI. Then, the door was opened and the mouse was allowed to enter freely one of the two goal arms; the chosen arm was closed and the choice was recorded. After a 30 s confinement period into the chosen arm, the mouse was removed and brought back to the start-box for a second trial identical to the first one and this procedure was repeated over the series of trials.
The same general procedure used in the training session was implemented 24 h later, except that the ITI was lengthened to 90 s. For this experiment, animals were acutely injected i.p. with vehicle or αPAM, 30 minutes before the beginning of the test. To dissociate memory deficits from an eventual progressive loss of motivation to alternate over the series, an 8th trial was added to the series which was separated from the 7th trial by a shorter ITI (5 s). All animals failing to alternate at the 8th trial were excluded. The mean alternation rate was calculated and was expressed in percentage (number of alternation done by the animal/total number of alternation possible×100)±SEM. The percentage of alternation during the entire task is considered as an index of working memory performance (50% of being a random alternation rate). Factorial ANOVA was applied to the data to reveal differences between groups. If the ANOVA was significant for group effect (p<0.05), Scheffe post-hoc analysis were conducted to identify which groups are different from each other.
(§1) All drugs were diluted in a vehicle solution containing 85% H2O, 14% propylene glycol (Sigma Aldrich) and 1% Tween 80 (Sigma Aldrich). Working solutions were prepared at a concentration of 10 mg/mL and administered i.p. adjusted to the body weight of each animal. Doses used were either 1, 5, 10 or 20 mg/kg. For all Y maze experiments, animals were acutely injected i.p. with vehicle or αPAM, 30 minutes before the beginning of the test.

C57B1/6 male mice = assay: Forced swim test (FST); format: in vivo, mouse; conditions: vs vehicle
Experimental: C57B1/6 male mice were ordered from Jackson Laboratories at 8 weeks-old and were group housed (4-5 mice/cage) under normal housing conditions (12 h light ON cycle starting at 7 am/water and food ad libitum) for one week. During this week, animals were handled in order to habituate them to the experimenter and to reduce their anxiety-like response during behavioral testing.
as §1, with “20” for “10”, “5 or” for “5,”, “10” for “10 or 20”, “FST” for “Y maze”, “were” for “were acutely”, “αPAM.” for “αPAM, 30 minutes before the beginning of the test.”
Mice were tested in the forced swim test (FST) (measure of despair-like behavior used for the assessment of antidepressant efficacy). Animals were sub-chronically injected three times (24, 20 and 1 hour before testing) as per standard methods in the field for testing potential antidepressant compounds.
One hour after the last injection, mice were placed in an inescapable transparent tank filled with water (25 cm, 25-26° C.), where they are unable to touch the bottom and unable to jump out of the tank. Animal were recorded for a period of 6 minutes and a manual count of the immobile time in the tank was measured for the 2-6 minutes period by an experimenter blinded to the mouse treatment history. Immobility is defined as the minimum amount of movement to stay afloat. Compounds that reduced immobility in the FST are considered to have potential antidepressant actions.

[2] = Mouse liver microsome stability assay; format: in vitro ADME; conditions: 10 μM compound; for half-life at 10 μM: mouse, liver microsomes, read-out: Half-life (min) (MouseLM); for % left (MouseLM), (1 h): cells marked (1 h)
Experimental: (§2) Human and mouse liver microsomes were obtained fom BD Gentest.
(§3) Each evaluation included six independent assays carried out three at a time, on two different days
(§4) 2. For a total volume of Microsomal Assay Mixture (MAM) 390 μL, sufficient for seven time points, combine the following
(§5) 3. Sonicate MAM for 5 min and meanwhile thaw microsomes (20 mg/mL) (BD Gentest, Cat #452156) on ice.
(§6) 4. Aliquot 100 μL of ice cold ISTD into 7 separate 1.5 mL conical vials and label them the time points for 0, 10, 20, 40, 60, 90, and 120 min.
(§7) 5. Arrange the timer. Microsomes (Final concentration of 0.5 mg/mL) should be added to all time points except the zero time point.
(§8) 6. Add 50 μL of the MAM solution to the conical vial labelled as zero time point. Place the remaining MAM solution in the incubator (37° C.) for 5 min and initiate the reaction with addition of microsomes (8.8 μL) and record the time.
(§9) 7. At the end of each time interval remove 50 μL and add 100 μL to ISTD in conical vial, sonicate for 10 sec and spin down at 10,000 rpm for 5 minutes.
(§10) 8. Take 100 μL of supernatant and transfer to Spin-X HPLC filter tubes (Corning Incorporated, Cat #8169) and centrifuge at 13,000 rpm for 5 minutes and take 5 μL from this solution and dilute in 495 μL of LCMS grade methanol (Fischer scientific, CAS #67-56-1) in an 2 mL glass auto sampler vial (Microsolv, Cat #95025-WCV) 9. The samples are analyzed by LCMS-8040. (Shimadzu)
(§11) Calculation: From the peak area, calculate the following
(§12) The compounds are tested for the metabolic stability in the Human and Mouse Liver microsomes at 10 μM concentration.

[3] = Human liver microsome stability assay; format: in vitro ADME; conditions: 10 μM compound; for half-life at 10 μM: human, liver microsomes, read-out: Half-life (min) (HumanLM); for % left (Human LM), (1 h): cells marked (1 h)
Experimental: as §2, §3, §4, §5, §6, §7, §8, §9, §10, §11, §12

[4] = 1 mg/kg i.p. 30 min before testing
[5] = 10 mg/kg i.p. 30 min before testing
[6] = 5 mg/kg i.p. 24, 20, 1 hour before testing
[7] = 5 mg/kg i.p. 30 min before testing
[8] = 10 mg/kg i.p. 24, 20, 1 hour before testing

Row | Compound | effect on CRS-induced working memory deficit (percent alternation rate, Y-maze) [1, 4] | effect on CRS-induced working memory deficit (percent alternation rate, Y-maze) [1, 5] | time spent immobile in the FST (C57B1/6 male mice; [6]) | % left after 2 hr. (MouseLM) [2] | half-life at 10 μM [2] [min] | % left after 2 hr. (Human LM) ([3]; 2 hr) [%] | half-life at 10 μM [3] [min] | effect on CRS-induced working memory deficit (percent alternation rate, Y-maze) [1, 7] | effect on CRS-induced working memory deficit (percent alternation rate, Y-maze) ([1]; 20 mg/kg i.p. 30 min before testing) | time spent immobile in the FST (C57B1/6 male mice; [8]) | Half-life (min) (MouseLM) [2] | % left (MouseLM), (1 h) [2] | Half-life (min) (HumanLM) [3] | Alternation rate (%) ([1]; Dose 1-5-10 mg/kg) | Alternation rate (%) ([1]; Dose 10 mg/kg) | % left (Human LM), (1 h) [3] [%] | Alternation rate (%) ([1]; Dose 5 mg/kg)
1 | C#Cc1ccc2c(c1)C(c1ccccc1F)=N[C@@H](C)c1c(C(=O)N(C)C)ncn1-2 [GL-I-54, (S)-8-ethynyl-6-(2-fluorophenyl)-N,N,4-trimethyl-4H-benzo[f]imidazo[1,5-a][1,4]diazepine-3-carboxamide] | decreased performance | significant reversal of CRS-induced impairment in working memory; also recorded: significant pro-cognitive effect | significant decrease in immobility time; also recorded: significant antidepressant-like action | 15.0% and 15.0 ± 3.0% | 53 ± 10 | 36.4 ± 2.0 | 100 ± 4.5 | – | – | – | – | – | – | – | – | – | –
2 | C#Cc1ccc2c(c1)C(c1ccccc1F)=N[C@H](C)c1c(C(=O)N(C)C)ncn1-2 [GL-II-73, (R)-8-ethynyl-6-(2-fluorophenyl)-N,N,4-trimethyl-4H-benzo[f]imidazo[1,5-a][1,4]diazepine-3-carboxam] | – | pro-cognitive effect | – | – | – | – | – | pro-cognitive effect | pro-cognitive effect | significantly decreased the immobility; also recorded: significant antidepressant-like efficacy | 309 ± 36 | 81.6% and 86.6 ± 0.2% | 755 ± 243 | – | – | – | –
3 | C#Cc1ccc2c(c1)C(c1ccccc1F)=N[C@H](C)c1c(C(=O)NCC)ncn1-2 [GL-II-74, (R)—N-ethyl-8-ethynyl-6-(2-fluorophenyl)-4-methyl-4H-benzo[f]imidazo[1,5-a][1,4]diazepine-3-carboxamide] | – | – | significantly decreased the immobility; also recorded: significant antidepressant-like efficacy | – | 69 ± 3 | – | 751 ± 214 | – | – | significantly decreased the immobility; also recorded: significant antidepressant-like efficacy | – | 56.5 ± 0.3% | – | <58.3 | – | – | –
4 | C#Cc1ccc2c(c1)C(c1ccccc1F)=N[C@H](C)c1c(C(=O)NC3CC3)ncn1-2 [GL-II-75, (R)—N-cyclopropyl-8-ethynyl-6-(2-fluorophenyl)-4-methyl-4H-benzo[f]imidazo[1,5-a][1,4]diazepine-3-carboxamide] | significant reversal of CRS-induced impairment in working memory; also recorded: significant pro-cognitive effect | significant reversal of CRS-induced impairment in working memory; also recorded: significant pro-cognitive effect | significantly decreased the immobility; also recorded: significant antidepressant-like efficacy | – | 239 ± 22 | – | 712 ± 165 | significant reversal of CRS-induced impairment in working memory; also recorded: significant pro-cognitive effect | – | significantly decreased the immobility; also recorded: significant antidepressant-like efficacy | – | 83.5 ± 0.2% | – | – | – | – | –
5 | C#Cc1ccc2c(c1)C(c1ccccc1F)=N[C@H](C)c1c(C(=O)N3CCCC3)ncn1-2 [GL-II-76, (R)-(8-ethynyl-6-(2-fluorophenyl)-4-methyl-4H-benzo[f]imidazo[1,5-a][1,4]diazepin-3-yl)(pyrrolidin-1-yl)methanone] | – | – | – | – | 23 ± 1 | – | 154 ± 5 | – | – | – | – | 18.6 ± 0.3% | – | – | 47.2 | 75 ± 0.1 | –
6 | C#Cc1ccc2c(c1)C(c1ccccc1F)=N[C@H](C)c1c(C(=O)NC)ncn1-2 [MP-III-022] | – | – | – | 76.6% and 76.6 ± 0.2% | 164 ± 10 | – | 141 ± 18 | – | – | significant decrease in immobility time; also recorded: significant antidepressant-like action | – | – | – | – | – | 69.4 ± 0.4 | 45.5
